Entries after “also recorded” stand apart in the source; their conditions may differ.
How the values were obtained:
[1] = test system: CMV-specific T-cell products; test: CMV-specific stimulation at day 21, intracellular cytokines by flow cytometry; assay type: cell-based, human
Method: FIG. 2: Functional profiles of CMV-specific T-cell products with disrupted FKBP12 CMV-specific stimulation of T-cell products at day 21 of culture using antigen-presenting cells (autologous lymphoblastic B-cell lines) pulsed with overlapping peptide pools of CMVIE-1 and CMVpp65 (6 h stimulation). Cytokines were captured in T-cells by addition of Brefeldin A after 1 h of stimulation and cells were stained using a fixation/permeabilization kit and fluorescently 1a-belled antibodies. Data were acquired by multicolor flow cytometry. Immunosuppressants were added where indicated at the following clinically relevant doses: Tac = 6 ng/ml Tacrolimus; CsA ═ 120 ng/ml Cyclosporine A; Tac/Pred/MPA = 6 ng/ml Tacrolimus + 0.57 µg/ml Prednisolone + 2.7 µg/ml Mycophenolic acid. Stars symbolize p-values < 0.05, which were determined by tests for normal distribution (Shapiro-Wilk and Kolmogorov-Smirnov tests), followed by one-way ANOVA (normally distributed data sets) or Friedman test (not normally distributed data sets) and paired t-tests (normally distributed data sets) or Wilcoxon matched pairs signed rank tests (not normally distributed data sets) as posttests. […]

Regulatory T cells = test: Treg expansion in medium with or without calcineurin inhibitors; assay type: cell-based, human; settings: Tac 6 ng/ml
Method: Edited and control Treg cells were subsequently expanded in medium with or without different calcineurin inhibitors and subsequently analysed for cell expansion (A) and with flow cytometry (B+C). […] CTLA4 is known to suppress T cells and modulate pro-inflammatory responses by dendritic cells. […] Light bars are untouched expanded Treg, dark bars are FKBP12^k.o.expanded Treg. Tac was used at 6 ng/ml, CsA was used at 125 ng/ml, which corresponds to pharmacological doses that may, e.g., found in patient serum.
FKBP12^KO and control Treg cells were subsequently expanded in medium with or without different calcineurin inhibitors and subsequently analysed for cell expansion (FIG. 11 A) and with flow cytometry (FIG. 11 B+C). […] CTLA4 is known to suppress T cells and modulate pro-inflammatory responses by dendritic cells.

K562 cells = test: NK92 cytotoxicity in co-culture with K562; assay type: cell-based, human; settings: 1:1 with K562, n = 1
Method: FIG. 19: Killing efficiency pf FKBP12^KO NK cells NK92 were electroporated with Cas9 protein and sgRNA#1(Table 1). After 5 days they were incubated with K562 cells at a ratio of 1:1. Killing capacity was calculated by the reduction in frequency of K562 cells. n = 1.
We performed a proof-of-principle experiment to confirm feasibility of FKBP12^KO in the NK cell line NK92. Four days prior to the experiment, FKBP12^KO NK92 cells were electroporated with Cas9 + FKBP12 sgRNA#1 (Table 1). NK cell cytotoxicity was assessed by co-culture with the MHC class I deficient erythroleukemia cell line K562. To this end, NK92 and CFSE-labeled K562 cells were mixed at a 1:1 ratio. After a total of 8 hours, the reaction was stopped by washing with cold 1X PBS. The cells were stained with Life Dead UV before fixation and permeabilization (IC Fix/Perm Kit, Thermo Fisher). Fixation was performed for 30 minutes at RT. The stained cells were analyzed with a Cytoflex LX. Analysis was performed with FlowJo v10.

[2] = test system: target cells loaded with SARS-CoV-2 peptides

Molecule | proportion of IFNγ-producers ([1]; effect of Tacrolimus on T-cells of CMV-TCPs) | proliferation of untouched Tregs (Regulatory T cells) | killing efficiency in non-edited NK92 cells (K562 cells) | T-cell-mediated cytotoxic killing of target cells [2] | cytokine producers / T-cell function in the presence of Tacrolimus ([1]; 6 ng/ml Tacrolimus, TCPs edited with the named sgRNA)
C=CC[C@@H]1/C=C(\C)C[C@H](C)C[C@H](OC)[C@H]2O[C@@](O)(C(=O)C(=O)N3CCCC[C@H]3C(=O)O[C@H](/C(C)=C/[C@@H]3CC[C@@H](O)[C@H](OC)C3)[C@H](C)[C@@H](O)CC1=O)[C@H](C)C[C@@H]2OC [Tacrolimus] | significantly reduced | reduced the proliferation | decreased killing efficiency | not affected | –
sgRNA#2: FKBP12-specific guide RNA targeting SEQ ID NO: 1; full sequence SEQ ID NO: 17 (nucleic acid, synthetic chemically modified sgRNA, pattern not given here) guide: GGGCGCACCUUCCCCAAGCGGUUUUAGAGCUAGAAAUAGCAAGUUAAAAUAAGGCUAGUCCGUUAUCAACUUGAAAAAGUGGCACCGAGUCGGUGC | – | – | – | – | superior function in maintaining T-cell function; also recorded: retained physiological levels of cytokine producers
